Laboratory results as given in patent US20080090805A1, “CB-1 MODULATING COMPOUNDS AND THEIR USE” (ACADIA PHARMACEUTICALS INC., priority 2005, published 2008).
pIC50: −log10 of the molar value.

Each molecule was assayed against CB1 (mutant) (Homo sapiens, UniProt P21554) (assay: R-SAT functional receptor assay, CB1 (mutant, truncated after amino acid 417)). Conditions: Appendix A; R-SAT CB1; receptor form (mutant or wild-type) not stated; read-out: pIC50 (converted).
Assay type: cell-based

Sequence of CB1 (mutant) (P21554 1-417, change not shown): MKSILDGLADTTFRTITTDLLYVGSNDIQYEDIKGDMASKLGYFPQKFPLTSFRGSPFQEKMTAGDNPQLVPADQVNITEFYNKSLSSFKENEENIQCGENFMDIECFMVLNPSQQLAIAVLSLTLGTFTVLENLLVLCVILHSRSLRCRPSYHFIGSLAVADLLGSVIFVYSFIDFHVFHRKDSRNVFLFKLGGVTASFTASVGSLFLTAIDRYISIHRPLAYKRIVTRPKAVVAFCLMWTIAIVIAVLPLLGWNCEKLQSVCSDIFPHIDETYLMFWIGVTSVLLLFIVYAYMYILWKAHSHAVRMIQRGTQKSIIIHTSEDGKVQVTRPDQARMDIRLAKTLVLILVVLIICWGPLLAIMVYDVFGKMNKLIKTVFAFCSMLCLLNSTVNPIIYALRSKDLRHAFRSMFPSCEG

IC50	SMILES
20 nM	O=C(NCc1ccc(F)cc1)c1ccc2c(c1)N=C(c1ccc(Cl)cc1)c1ccccc1S2(=O)=O [drawing 961]
7.94 nM	O=C(NCCc1ccc(Cl)cc1)c1ccc2c(c1)N=C(c1ccccc1)c1ccccc1S2 [drawing 733]
25.1 nM	COCCNC(=O)c1ccc2c(c1)N=C(c1cccc(F)c1)c1ccccc1S2 [drawing 1025]
39.8 nM	O=C(NCc1ccccn1)c1ccc2c(c1)N=C(c1ccc(Cl)cc1)c1ccccc1S2 [drawing 1157]
12.6 nM	COc1ccc(C2=Nc3cc(C(=O)NCC(C)C)ccc3Sc3ccccc32)cc1 [drawing 835]
79.4 nM	NS(=O)(=O)c1ccc(CNC(=O)c2ccc3c(c2)N=C(c2ccc(Cl)cc2)c2ccccc2S3)cc1 [drawing 746]
15.8 nM	CCCCNC(=O)c1ccc2c(c1)N=C(c1ccc(Cl)s1)c1cc(F)ccc1S2 [drawing 873]
7.94 nM	O=C(NCc1ccccc1)c1ccc2c(c1)N=C(c1cccc(Cl)c1)c1ccccc1S2 [drawing 717]
25.1 nM	O=C(NCCc1cccnc1)c1ccc2c(c1)N=C(c1ccc(F)cc1)c1ccccc1S2 [drawing 1033]
25.1 nM	O=C(NCCc1ccccc1)c1ccc2c(c1)N=C(N1CCCCC1)c1ccccc1S2 [drawing 1019]
10 nM	CCCCNC(=O)c1ccc2c(c1)N=C(c1ccc(Br)cn1)c1ccccc1S2 [drawing 807]
25.1 nM	CC(CNC(=O)c1ccc2c(c1)N=C(N1CCCCC1)c1ccccc1S2)c1ccccc1 (stereo not drawn) [drawing 1017]
10 nM	CCCC1=Nc2cc(C(=O)NCc3ccc(F)cc3)ccc2Sc2ccccc21 [drawing 787]
6.31 nM	CCCCNC(=O)c1ccc2c(c1)N=C(c1ccc(Cl)cc1)c1sccc1S2 [drawing 657]
20 nM	COCCNC(=O)c1ccc2c(c1)N=C(c1ccc(Cl)s1)c1ccccc1S2 [drawing 963]
10 nM	O=C(NN1CCCCCC1)c1ccc2c(c1)N=C(c1ccc(Cl)s1)c1ccccc1S2 [drawing 797]
12.6 nM	O=C(NCCc1cccnc1)c1ccc2c(c1)N=C(c1ccc(Cl)c(Cl)c1)c1ccccc1S2 [drawing 825]
79.4 nM	COc1ccc(C2=Nc3cc(C(=O)NCc4cccnc4)ccc3Sc3ccccc32)cc1 [drawing 712]
5.01 nM	CC(C)CNC(=O)c1ccc2c(c1)N=C(c1ccccc1F)c1ccccc1S2 [drawing 627]
50.1 nM	O=C(NN1CCCCCC1)c1ccc2c(c1)N=C(c1ccccc1F)c1ccccc1S2 [drawing 578]
31.6 nM	COCCNC(=O)c1ccc2c(c1)N=C(c1ccc(Br)cc1)c1ccccc1S2 [drawing 1081]
50.1 nM	CC(C)NC(=O)c1ccc2c(c1)N=C(c1ccc(Cl)cc1)c1ccccc1S2 [drawing 576]
79.4 nM	O=C(NCc1ccccc1Br)c1ccc2c(c1)N=C(c1ccccc1)c1ccccc1S2 [drawing 700]
200 nM	CCOC(=O)c1ccc(C2=Nc3cc(C(=O)NCc4ccccn4)ccc3Sc3ccccc32)cc1 [drawing 874]
63.1 nM	Cc1ccsc1C1=Nc2cc(C(=O)NC3CCCC3)ccc2Sc2ccccc21 [drawing 652]

More lines, now with the values behind:

SMILES	IC50
COCCNC(=O)c1ccc2c(c1)N=C(c1sccc1C)c1ccccc1S2	63.1 nM
Cc1ccsc1C1=Nc2cc(C(=O)NCc3cccnc3)ccc2Sc2ccccc21	100 nM
CCCCNC(=O)c1ccc2c(c1)N=C(c1ccc(Cl)cn1)c1cc(F)ccc1S2 [drawing 560]	50.1 nM
O=C(NNC(=O)c1ccc2c(c1)N=C(c1ccc(Br)cc1)c1ccccc1S2)c1ccccc1	251 nM
CCCC1=Nc2cc(C(=O)NCc3ccc4c(c3)OCO4)ccc2Sc2ccc(C)cc21	1580 nM
CCCC1=Nc2cc(C(=O)N3CCN(C(=O)OCC)CC3)ccc2Sc2ccccc21	1000 nM
O=C(NCc1ccccn1)c1ccc2c(c1)N=C(c1ccc(F)cc1)c1ccccc1S2	63.1 nM
O=C(NN1CCCCC1)c1ccc2c(c1)N=C(Nc1ccccc1)c1ccccc1S2	2000 nM
O=C(NCc1cccs1)c1ccc2c(c1)N=C(c1ccc(Cl)s1)c1ccccc1S2 [drawing 553]	2 nM
CC(C)NC(=O)c1ccc2c(c1)N=C(c1ccccc1Cl)c1ccccc1S2	631 nM
Cc1csc(CNC(=O)c2ccc3c(c2)N=C(c2ccsc2)c2ccccc2S3)c1 [drawing 563]	2.51 nM
COCCNC(=O)c1ccc2c(c1)N=C(c1ccccc1F)c1ccccc1S2	100 nM
CCCC1=Nc2cc(C(=O)N3CCN(c4cc(C)ccc4C)CC3)ccc2Sc2ccccc21	158 nM
O=C(NN1CCOCC1)c1ccc2c(c1)N=C(c1ccc(F)cc1)c1ccccc1S2	631 nM
C=C(/C=C\C1=CN=C(CCC)c2ccccc2S1)C(=O)NC1CCCC1	79.4 nM
CCCCN(C)C(=O)c1ccc2c(c1)N=C(c1ccccc1F)c1ccccc1S2	251 nM
O=C(NC1CCCC1)c1ccc2c(c1)N=C(c1ccccc1Cl)c1ccccc1S2	794 nM
CONC(=O)c1ccc2c(c1)N=C(c1cccc(F)c1)c1ccccc1S2	1000 nM
CCCCCC1=Nc2cc(C(=O)NC3CCN(C(=O)OCC)CC3)ccc2Sc2ccccc21	501 nM
CC(C)NC(=O)c1ccc2c(c1)N=C(c1ccccc1F)c1ccccc1S2	251 nM

Same assay, conditions: Appendix A; R-SAT CB1; receptor form not stated; relative to SR141716 (100%)

% Inhibition	SMILES
95%	COCCNC(=O)c1ccc2c(c1)N=C(c1ccc(Cl)s1)c1ccccc1S2 [drawing 963]

Same assay, conditions: Appendix A; R-SAT CB1; receptor form not stated; relative to SR141716 (100%); read-out: % Inhibition

Emax	SMILES
108%	O=C(NCc1ccc(F)cc1)c1ccc2c(c1)N=C(c1ccc(Cl)cc1)c1ccccc1S2(=O)=O [drawing 961]
108%	O=C(NCCc1ccc(Cl)cc1)c1ccc2c(c1)N=C(c1ccccc1)c1ccccc1S2 [drawing 733]
115%	COCCNC(=O)c1ccc2c(c1)N=C(c1cccc(F)c1)c1ccccc1S2 [drawing 1025]
125%	O=C(NCc1ccccn1)c1ccc2c(c1)N=C(c1ccc(Cl)cc1)c1ccccc1S2 [drawing 1157]
118%	COc1ccc(C2=Nc3cc(C(=O)NCC(C)C)ccc3Sc3ccccc32)cc1 [drawing 835]
76%	NS(=O)(=O)c1ccc(CNC(=O)c2ccc3c(c2)N=C(c2ccc(Cl)cc2)c2ccccc2S3)cc1 [drawing 746]
99%	CCCCNC(=O)c1ccc2c(c1)N=C(c1ccc(Cl)s1)c1cc(F)ccc1S2 [drawing 873]
106%	O=C(NCc1ccccc1)c1ccc2c(c1)N=C(c1cccc(Cl)c1)c1ccccc1S2 [drawing 717]
119%	O=C(NCCc1cccnc1)c1ccc2c(c1)N=C(c1ccc(F)cc1)c1ccccc1S2 [drawing 1033]
106%	O=C(NCCc1ccccc1)c1ccc2c(c1)N=C(N1CCCCC1)c1ccccc1S2 [drawing 1019]
105%	CCCCNC(=O)c1ccc2c(c1)N=C(c1ccc(Br)cn1)c1ccccc1S2 [drawing 807]
105%	CC(CNC(=O)c1ccc2c(c1)N=C(N1CCCCC1)c1ccccc1S2)c1ccccc1 (stereo not drawn) [drawing 1017]
107%	CCCC1=Nc2cc(C(=O)NCc3ccc(F)cc3)ccc2Sc2ccccc21 [drawing 787]
122%	CCCCNC(=O)c1ccc2c(c1)N=C(c1ccc(Cl)cc1)c1sccc1S2 [drawing 657]
105%	O=C(NN1CCCCCC1)c1ccc2c(c1)N=C(c1ccc(Cl)s1)c1ccccc1S2 [drawing 797]
104%	O=C(NCCc1cccnc1)c1ccc2c(c1)N=C(c1ccc(Cl)c(Cl)c1)c1ccccc1S2 [drawing 825]
106%	COc1ccc(C2=Nc3cc(C(=O)NCc4cccnc4)ccc3Sc3ccccc32)cc1 [drawing 712]
118%	CC(C)CNC(=O)c1ccc2c(c1)N=C(c1ccccc1F)c1ccccc1S2 [drawing 627]
87%	O=C(NN1CCCCCC1)c1ccc2c(c1)N=C(c1ccccc1F)c1ccccc1S2 [drawing 578]
69%	COCCNC(=O)c1ccc2c(c1)N=C(c1ccc(Br)cc1)c1ccccc1S2 [drawing 1081]
98%	CC(C)NC(=O)c1ccc2c(c1)N=C(c1ccc(Cl)cc1)c1ccccc1S2 [drawing 576]
83%	O=C(NCc1ccccc1Br)c1ccc2c(c1)N=C(c1ccccc1)c1ccccc1S2 [drawing 700]
100%	CCOC(=O)c1ccc(C2=Nc3cc(C(=O)NCc4ccccn4)ccc3Sc3ccccc32)cc1 [drawing 874]
81%	Cc1ccsc1C1=Nc2cc(C(=O)NC3CCCC3)ccc2Sc2ccccc21 [drawing 652]

Continued, molecule first:

SMILES	Emax
O=C(NC1CCC(F)(F)CC1)c1ccc2c(c1)N=C(c1cccc(Cl)c1)c1ccccc1S2 [drawing 699]	91%
COCCNC(=O)c1ccc2c(c1)N=C(c1sccc1C)c1ccccc1S2	88%
Cc1ccsc1C1=Nc2cc(C(=O)NCc3cccnc3)ccc2Sc2ccccc21	102%
CCCCNC(=O)c1ccc2c(c1)N=C(c1ccc(Cl)cn1)c1cc(F)ccc1S2 [drawing 560]	100%
O=C(NNC(=O)c1ccc2c(c1)N=C(c1ccc(Br)cc1)c1ccccc1S2)c1ccccc1	88%
CCCC1=Nc2cc(C(=O)NCc3ccc4c(c3)OCO4)ccc2Sc2ccc(C)cc21	77%
CCCC1=Nc2cc(C(=O)N3CCN(C(=O)OCC)CC3)ccc2Sc2ccccc21	77%
O=C(NCc1ccccn1)c1ccc2c(c1)N=C(c1ccc(F)cc1)c1ccccc1S2	90%
CC(C)CNC(=O)c1ccc2c(c1)N=C(c1ccccc1Cl)c1ccccc1S2	86%
Cc1ccsc1C1=Nc2cc(C(=O)NN3[C@H](C)CCC[C@@H]3C)ccc2Sc2ccccc21 [drawing 772]	89%
COc1cccc(C2=Nc3cc(C(=O)NC4CCC(F)(F)CC4)ccc3Sc3ccccc32)n1 [drawing 653]	104%
O=C(NN1CCCCC1)c1ccc2c(c1)N=C(Nc1ccccc1)c1ccccc1S2	92%
O=C(NC1CCCC1)c1ccc2c(c1)N=C(c1ccc(F)cc1)c1ccccc1S2 [drawing 720]	117%
O=C(NCc1cccs1)c1ccc2c(c1)N=C(c1ccc(Cl)s1)c1ccccc1S2 [drawing 553]	114%
CC(C)NC(=O)c1ccc2c(c1)N=C(c1ccccc1Cl)c1ccccc1S2	46%
Cc1csc(CNC(=O)c2ccc3c(c2)N=C(c2ccsc2)c2ccccc2S3)c1 [drawing 563]	93%
COCCNC(=O)c1ccc2c(c1)N=C(c1ccccc1F)c1ccccc1S2	99%
CC(C)CNC(=O)c1ccc2c(c1)N=C(c1ccc(Cl)cc1)c1ccccc1S2 [drawing 741]	123%
CCCC1=Nc2cc(C(=O)N3CCN(c4cc(C)ccc4C)CC3)ccc2Sc2ccccc21	90%
O=C(NCCCc1ccccc1)c1ccc2c(c1)N=C(c1ccc(Cl)cc1)c1ccccc1S2 [drawing 645]	106%
O=C(NN1CCOCC1)c1ccc2c(c1)N=C(c1ccc(F)cc1)c1ccccc1S2	77%
O=C(NCc1ccccc1Cl)c1ccc2c(c1)N=C(c1ccccc1F)c1ccccc1S2 [drawing 622]	72%
C=C(/C=C\C1=CN=C(CCC)c2ccccc2S1)C(=O)NC1CCCC1	109%
CCCCN(C)C(=O)c1ccc2c(c1)N=C(c1ccccc1F)c1ccccc1S2	77%
O=C(NC1CCCC1)c1ccc2c(c1)N=C(c1ccccc1Cl)c1ccccc1S2	59%
CONC(=O)c1ccc2c(c1)N=C(c1cccc(F)c1)c1ccccc1S2	67%
CCCCCC1=Nc2cc(C(=O)NC3CCN(C(=O)OCC)CC3)ccc2Sc2ccccc21	87%
CC(C)NC(=O)c1ccc2c(c1)N=C(c1ccccc1F)c1ccccc1S2	82%

Same assay, conditions: pIC50, Appendix A; R-SAT CB1; receptor form (mutant or wild-type) not stated

SMILES	pIC50
O=C(NC1CCC(F)(F)CC1)c1ccc2c(c1)N=C(c1cccc(Cl)c1)c1ccccc1S2 [drawing 699]	8.10
Cc1ccsc1C1=Nc2cc(C(=O)NN3[C@H](C)CCC[C@@H]3C)ccc2Sc2ccccc21 [drawing 772]	7.00
COc1cccc(C2=Nc3cc(C(=O)NC4CCC(F)(F)CC4)ccc3Sc3ccccc32)n1 [drawing 653]	8.20
O=C(NC1CCCC1)c1ccc2c(c1)N=C(c1ccc(F)cc1)c1ccccc1S2 [drawing 720]	7.10
CC(C)CNC(=O)c1ccc2c(c1)N=C(c1ccc(Cl)cc1)c1ccccc1S2 [drawing 741]	8.10
O=C(NCCCc1ccccc1)c1ccc2c(c1)N=C(c1ccc(Cl)cc1)c1ccccc1S2 [drawing 645]	8.30
O=C(NCc1ccccc1Cl)c1ccc2c(c1)N=C(c1ccccc1F)c1ccccc1S2 [drawing 622]	7.20
